Measurements published in US9006454B2, “Dihydroorotate dehydrogenase inhibitors” (Merck Serono S.A., priority 2009, dated 2015).

How the values were obtained:
[1] = tested on: Jurkat cells; assay: Measurement of cell proliferation (Jurkat cell), XTT assay; type: cell-based; settings: for inhibition at 1 µM: compound at 1 uM, read-out: % inh Jurkat_cells @ 1 uM (%); for EC50: XTT cell viability
Method: See also Roehm, N et al [1991] An improved colorimetric assay for cell proliferation and viability utilizing the tetrazolium salt XTT. J. Immunol. Methods 142:257-265.
Culture Jurkat cells in T-25 flasks at a density of 0.2×10^6/ml 2-3 days before the day of experiment set up.
Centrifuge Jurkat T-cell suspension at 1200 rpm for 10 minutes and resuspend cells again in fresh RPMI medium with 10% FBS.
Count the cells and dilute suspension to a density of 2×10^6 cells/ml. Seed 50 μL of this suspension in each well of a 96 well plate (100,000 cells per well). Keep the edges of the plate empty to avoid evaporation.
Serially dilute DMSO stocks of compounds to get different concentrations for an EC50 curve. 50 μL of compound diluted in media (2× concentration required in well) is added to each well. DMSO concentration should be kept constant at 0.25-0.5% for all wells.
Typically, for all compounds with IC50<1 μM, compound concentration can start at 10 μM followed by half log dilutions for a total of 8-10 concentrations. Each concentration has to be tested in triplicate.
Include controls such as cells without compound (with same DMSO concentration as compound wells), and media control
Incubate the 96 well plate in a CO2 incubator at 37° C. for 72 hrs before determining cell viability using XTT assay
XTT assay: to each well, add 50 μL of 1 mg/ml XTT solution with 20 μl of PMS/mL. Read the plates after 2 hours at 465 nm using the spectrophotometer. XTT reading for media without cells is used as background reading.
Calculate % cell viability assuming that the cells without compound are 100% viable.
Plot % cell viability as a function of concentration and determine EC50 by using software such as Graph Pad Prism to fit the curve.

[2] = molecular target: DHODH (Homo sapiens (Human), UniProt Q02127); assay: DHODH activity assay (coupled enzyme assay, DCIP reduction, absorbance at 610 nm); type: biochemical; settings: for inhibition at 10 µM / inh @ 10 uM hDHODH (%): compound at 10 uM; for inhibition at 10 µM: read-out: inh @ 10 uM hDHODH (%)
Chain of DHODH (Q02127 whole entry): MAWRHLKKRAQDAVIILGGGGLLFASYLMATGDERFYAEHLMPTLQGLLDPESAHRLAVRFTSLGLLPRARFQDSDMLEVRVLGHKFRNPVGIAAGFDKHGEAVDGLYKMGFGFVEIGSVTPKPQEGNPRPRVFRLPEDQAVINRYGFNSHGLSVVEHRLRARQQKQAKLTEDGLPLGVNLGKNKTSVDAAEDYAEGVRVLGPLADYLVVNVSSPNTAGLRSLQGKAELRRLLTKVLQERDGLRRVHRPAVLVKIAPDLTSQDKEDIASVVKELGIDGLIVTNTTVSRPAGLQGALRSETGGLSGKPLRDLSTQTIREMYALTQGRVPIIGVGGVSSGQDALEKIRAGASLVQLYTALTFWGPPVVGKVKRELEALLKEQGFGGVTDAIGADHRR
Method: The DHODH activity assay is a coupled enzyme assay in which oxidation of DHO and subsequent reduction of ubiquinone are stoichiometrically equivalent to the reduction of DCIP ([…]). The reduction of DCIP is accompanied by a loss of absorbance at 610 nm.
Buffer Preparation: 50 mM tris HCl, 150 mM KCl, and pH 8.0, 0.8% triton.
5 μL of Dimethyl sulfoxide or a compound of formula I in DMSO solution was added to the wells of a 96 well plate. Compounds of formula I were measured at 10 μM.
Protein along with buffer was added, so that the total volume including the DMSO was 87 μL. Compound and protein were incubated for half an hour at room temperature after mixing. 5 μL of 20 mM solution of L-Dihydroorotic acid, 5 μL of 2 mM solution of Decylubiquinone and 3 μL of 2 mM solution of 2,6-Dichloroindophenol sodium salt hydrate were added to the above solution (total assay volume 100 μL). The mixture was stirred for 2 min and absorbance was recorded at every 10 min at 610 nanometers.
Percent Inhibition is Calculated as Follows
Positive control contains DMSO, buffer, enzyme and substrates
No Enzyme reaction contains DMSO, buffer and substrates
IC50 determination: • A 2 mM DMSO stock of the compound of formula I to be examined was prepared. ⅓rd dilutions were made as follows:
5 μL of each stock of compound of formula I (solution indicated in column 4 of table) was used for each 100 μL assay. Therefore, 5 μL of the 2 mM stock provided 100 μL of 100 μM solution of compound of formula I, when made up with buffer, protein and substrate. See also: Ulrich et al. (2001) Eur. J. Biochem. 268, 1861-1868.

Structure (SMILES) | inhibition at 1 µM ([1]; Homo sapiens, Jurkat) [%] | IC50 [2] [nM] | inhibition at 10 µM [2] [%] | EC50 ([1]; Homo sapiens, Jurkat, 72 h) [nM] | EC50 ([1]; 72 hrs) [nM] | inh @ 10 uM hDHODH (%) [2] [%]
O=C(O)c1cccc2nc(-c3c(F)c(F)c(-c4ccccc4OCc4ccccc4)c(F)c3F)[nH]c12 [I101] | 60.1 | 707 | 82.2 |  |  | 
FC(F)(F)c1cccc2[nH]c(-c3ccc(-c4ccccc4)cc3)nc12 [I43] |  |  | 5.6 |  |  | 
O=C(O)c1cc(Cl)cc2[nH]c(-c3ccc(-c4ccccc4)cc3F)nc12 [I44] | 64.9 | 659 | 97.3 |  |  | 
O=C(O)c1cc(Cl)cc2nc(-c3ccc(-c4ccccc4)cc3)[nH]c12 [I35] | 56.4 | 994 | 92.9 | 746 |  | 
Cc1cc(C(=O)O)c2[nH]c(-c3ccc(-n4ccccc4=O)cc3)nc2c1 [I64] | 1.5 |  | 5.7 |  |  | 
Cc1cc(C(=O)O)c2nc(-c3ccc(-c4ccc(Oc5ccccc5C#N)cc4)cc3)[nH]c2c1 [I112] | 49 | 2030 | 85 |  |  | 
O=C(O)c1cccc2[nH]c(-c3ccc(-c4ccc(OCc5ccccc5)cc4)cc3)nc12 [I190] | 16.5 |  | 47.5 |  |  | 
O=C(O)c1cccc2[nH]c(-c3ccc(-c4cccc(OCc5ccccc5)c4)cc3)nc12 [I118] | 41.4 | 1300 | 84 |  |  | 
N#Cc1ccc(Oc2ccc(-c3ccc(-c4nc5c(C(=O)O)cccc5[nH]4)cc3)cc2)cc1 [I179] | 10.1 |  | 45.8 |  |  | 
O=C(O)c1cccc2[nH]c(-c3c(F)c(F)c(-c4ccc(F)c(F)c4)c(F)c3F)nc12 [I130] | 23.2 | 1220 | 66.9 |  |  | 
Cc1cc(C(=O)O)c2nc(-c3ccc(-c4ccc(OCCN5CCCC5)cc4)cc3)[nH]c2c1 [I151] | 16 |  | 67.9 |  |  | 
Cc1cc(C(=O)O)c2nc(-c3c(F)c(F)c(-c4ccc(NC(=O)C5CCCN5)cc4)c(F)c3F)[nH]c2c1 (stereo not drawn) [I85] | 93.4 | 56 | 104 |  |  | 
O=C(O)c1cccc2nc(-c3ccc(-c4ccccc4)cc3F)[nH]c12 [I27] | 57.1 | 922 | 86.2 |  |  | 
COc1cccc(-c2ccc(-c3nc4c(C(=O)O)cccc4[nH]3)c(F)c2)c1 [I5] |  | 368 |  |  | 356 | 94.3
O=C(O)c1cccc2[nH]c(-c3ccc(-c4ccccc4O)cc3)nc12 [I168] | 34 |  | 85 |  |  | 
Cc1cc(C(=O)O)c2nc(C#Cc3ccccc3)[nH]c2c1 [I84, 6-Methyl-2-phenylethynyl-1H-benzoimidazole-4-carboxylic acid] |  |  | 59.5 |  |  | 
Cc1cc(C(=O)O)c2[nH]c(-c3c[nH]c4ccccc34)nc2c1 [I42] |  |  | 7.1 |  |  | 
Cc1cc(C(=O)O)c2nc(-c3c(F)c(F)c(-c4cccc(NC(=O)C5CCCN5)c4)c(F)c3F)[nH]c2c1 (stereo not drawn) [I86] | 70.8 | 815 | 93.1 |  |  | 
Cc1cc(C(=O)O)c2[nH]c(-c3ccc(-n4c(C)ccc4C)cc3)nc2c1 [I121] | 70.7 | 401 | 108 |  |  | 
O=C(O)c1cc(F)cc2[nH]c(-c3c(F)cc(-c4ccccc4)cc3F)nc12 [I68] | 78.4 | 276 | 97.8 |  |  | 

Structure (SMILES) | inhibition at 1 µM ([1]; Homo sapiens, Jurkat) [%] | IC50 [2] [nM] | inhibition at 10 µM [2] [%] | EC50 ([1]; Homo sapiens, Jurkat, 72 h) [nM] | EC50 ([1]; 72 hrs) [nM] | inh @ 10 uM hDHODH (%) [2] [%]
O=C(O)c1cccc2[nH]c(-c3c(F)c(F)c(-c4cccc(F)c4F)c(F)c3F)nc12 [I128] | 64.9 | 209 | 73.1 |  |  | 
O=C(O)c1cccc2nc(-c3ccc(N4CCOCC4)cc3)[nH]c12 [I62] |  |  | 8.4 |  |  | 
Cc1cc(C(=O)O)c2nc(-c3ccc(-c4ccc(Oc5ccccn5)cc4)cc3)[nH]c2c1 [I171] | 35 |  | 86 |  |  | 
O=Cc1ccc(Oc2ccc(-c3ccc(-c4nc5c(C(=O)O)cccc5[nH]4)cc3)cc2)cc1 [I180] | 9.8 |  | 30.5 |  |  | 
O=C(O)c1cccc2nc(-c3ccc(-c4c(F)cccc4F)cc3)[nH]c12 [I65] | 43 | 1840 | 82 |  |  | 
Cc1cc(C(=O)O)c2nc(-c3c(F)c(F)c(-c4ccccc4)c(F)c3F)n(C)c2c1 [I113] |  | 116 | 95 |  |  | 
O=C(O)c1cc(F)cc2[nH]c(-c3ccc(-c4cccnc4)cc3)nc12 [I58] | 69.8 | 437 | 99.7 |  |  | 
O=C(O)c1cccc2nc(-c3ccc(-c4ccccc4F)cc3F)[nH]c12 [I24] | 53.2 | 965 | 86.7 |  |  | 
Cc1cc(C(=O)O)c2[nH]c(-c3ccc(-c4cccc(OCCC5CCNCC5)c4)cc3)nc2c1 [I153] | 15.1 |  | 53.4 |  |  | 
O=C(O)c1cccc2[nH]c(-c3ccc(-c4ccc(C(F)(F)F)cc4)cc3)nc12 [I13] |  |  | 10.6 |  |  | 
COC(=O)c1cccc2nc(-c3ccc(-c4ccccc4)cc3)[nH]c12 [I79, 2-Biphenyl-4-yl-1H-benzoimidazole-4-carboxylic acid methyl ester] |  |  | 5.3 |  |  | 
Cn1c(-c2ccc(-c3ccccc3)cc2)nc2c(C(=O)O)cccc21 [I7] |  |  | 30.2 |  |  | 
Cc1cc(C(=O)O)c2nc(-c3ccc(-c4cnccn4)cc3)[nH]c2c1 [I147] |  | 8450 | 44.3 |  |  | 
O=C(O)c1cccc2[nH]c(-c3ccc(OCc4ccccc4)cc3)nc12 [I2] |  | 4950 | 66.1 |  |  | 
Cc1ccc(-c2ccc(-c3nc4c(C(=O)O)cccc4[nH]3)cc2)cc1 [I12] |  |  | 9 |  |  | 
Cn1c(-c2ccc(-c3ccccc3)cc2)nc2cccc(C(=O)O)c21 [I8] |  | 1600 | 90.5 |  |  | 
COc1cccc(-c2ccc(-c3nc4c(C(=O)O)cccc4[nH]3)c(F)c2)c1 [I4] |  |  |  |  |  | 2.1
Cc1cc(C(=O)O)c2nc(-c3ccc(N4CCCCCC4=O)cc3)[nH]c2c1 [I80, 6-Methyl-2-[4-(2-oxo-azepan-1-yl)-phenyl]-1H-benzoimidazole-4-carboxylic acid] |  |  | 9.4 |  |  | 
Cc1nc(-c2ccc(-c3nc4cccc(C(=O)O)c4[nH]3)cc2)oc1C [I66] |  |  | 8.4 |  |  | 
